Source: PubChem BioAssay (NCI)
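Results reflect a 48-hour exposure of cells in 96-well plates to compound at five concentrations. The concentration for full growth arrest is given as TGI.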

How the values were obtained:
Assay in all cases: NCI tumour cell line growth inhibition, 48 h
[1] = system: HOP-92 NSCLC
[2] = system: SK-MEL-2 melanoma
[3] = system: UACC-62 melanoma
[4] = system: SNB-75 CNS
[5] = system: SK-MEL-5 melanoma
[6] = system: KM20L2 colon
[7] = system: NCI-H226 lung
[8] = system: M14 melanoma
[9] = system: IGROV1 ovarian
[10] = system: RXF 393 renal
[11] = system: EKVX NSCLC
[12] = system: HCT-15 colon
[13] = system: CCRF-CEM leukemia
[14] = system: MALME-3M melanoma
[15] = system: SN12C renal
[16] = system: OVCAR-8 ovarian
[17] = system: SNB-19 CNS
[18] = system: DLD-1 colon
[19] = system: OVCAR-3 ovarian
[20] = system: OVCAR-5 ovarian
[21] = system: TK-10 renal
[22] = system: RPMI-8226 leukemia
[23] = system: ACHN renal
[24] = system: OVCAR-4 ovarian
[25] = system: 786-0 renal
[26] = system: U251 CNS
[27] = system: HT29 colon
[28] = system: HCC-2998 colon
[29] = system: DMS 273 small cell lung
[30] = system: UACC-257 melanoma
[31] = system: XF 498 CNS
[32] = system: A498 renal
[33] = system: UO-31 renal
[34] = system: SF-539 CNS
[35] = system: DMS 114 small cell lung
[36] = system: HL-60(TB) leukemia
[37] = system: NCI-H23 lung
[38] = system: A549 NSCLC
[39] = system: RXF-631 renal
[40] = system: SK-MEL-28 melanoma
[41] = system: SNB-78 CNS
[42] = system: HCT-116 colon
[43] = system: SF-268 CNS
[44] = system: LOX IMVI melanoma
[45] = system: CAKI-1 renal
[46] = system: K-562 leukemia
[47] = system: MOLT-4 leukemia
[48] = system: SW-620 colon
[49] = system: LXFL 529 NSCLC
[50] = system: NCI-H522 lung
[51] = system: SR leukemia
[52] = system: SF-295 CNS
[53] = system: NCI-H460 lung
[54] = system: M19-MEL melanoma
[55] = system: MDA-MB-435
[56] = system: P388 leukemia
[57] = system: NCI/ADR-RES ovarian
[58] = system: DU-145 prostate
[59] = system: COLO 205 colon
[60] = system: KM12 colon
[61] = system: PC-3 prostate
[62] = system: SN12K1 renal
[63] = system: P388/ADR leukemia
[64] = system: MCF7 breast
[65] = system: BT-549 breast
[66] = system: HOP-18 NSCLC
[67] = system: SK-OV-3 ovarian
[68] = system: T-47D breast
[69] = system: HOP-62 NSCLC
[70] = system: HS 578T breast
[71] = system: MDA-N
[72] = system: MDA-MB-231 breast

Measured: TGI

O=c1/c(=C/c2ccccc2F)sc2nc3ccccc3n12
not listed: [55] | [56] | [57] | [58] | [59] | [60] | [61] | [62] | [63] | [64] | [65] | [66] | [67] | [68] | [69] | [70] | [71] | [72]
> 100 µM: all other assays above

O=C(NCCCCCCNC(=O)n1cc(F)c(=O)[nH]c1=O)NCCCOCCOCCOCCOCCOCCOCCOCCOCCOCCOCCOCCOCCOCCOCCOCCOCCOCCOCCOCCOCCOCCCNC(=O)C(O)C(O)C(O)C(O)CO (centres undefined)
> 62 µM: [64]
> 42.1 µM: [32]
43.7 µM: [34]
not listed: [39] | [49]
> 100 µM: all other assays above
